Experiments:
[1] = system: plasma and tumor tissue KYN; experiment: Tumor penetration: KYN levels in tumor and plasma, CT26/Balb/C tumor model; type: in vivo, Balb/c mice; settings: 50 mg/kg oral BID 4 days, vs vehicle; for plasma KYN levels reduced: 2 hours post-dosing
Experimental: i. Tumor penetration in mice: Tumor penetration of test compounds and KYN levels in tumor and plasma of treated animals were determined in a syngeneic CT26/Balb/C tumor model. Briefly, three to four tumor bearing Balb/c mice (tumor size=150-200 mm^3) were dosed twice a day orally for 4 days with test compound (for e.g., compound 2) at 50 mg/kg formulated in carboxymethyl cellulose (CMC). A vehicle control was included along with the test compounds. Blood samples were collected by retro-orbital bleed or terminal cardiac bleed into tubes containing heparin just before the final dose and at two hours after the final dose. Animals were sacrificed two hours post-final dose. Tumors were harvested and weighed immediately. Tumors were then snap frozen in liquid nitrogen, pulverized and dissolved in homogenization buffer (chilled acetonitrile/water/formic acid (10:90:0.1 v/v/v) to extract test compounds and kynurenine, KYN.
Plasma and tumor tissue KYN levels were reduced in test compound treated animals compared to control vehicle-treated animals (TABLE 7). For example, compounds 2 and 97 each reduced tumor KYN levels by 81%. At 2 hours post-dosing, the plasma KYN levels were reduced by 62% and 67% respectively in the animals treated with compound 2 or 97 compared to the control animals dosed with vehicle alone. The concentration of test compounds in the tumor tissue extracts is determined by LC/MS/MS using an API 4000 or AP15500 Qtrap mass spectrometer.

[2] = Brain penetration in rats; type: in vivo, Sprague-Dawley rats; settings: rat, single i.v. 10 mg/kg
Experimental: ii. Brain penetration in rats: Early and accurate prediction of drug penetration of the blood brain barrier is vital for the development of drugs targeting the central nervous system. Accordingly, ability of the compounds of the invention to penetrate the blood brain barrier was tested according to the methods well established in the art (Giorgetti et al., (2010) JPET 333:748-757, 2010). Briefly, Sprague-Dawley rats (n=3 per time point studied) were administered a single intravenous dose of the test compounds 2 or 97 formulated in 40% PEG and 20% PG at 10 mg/kg. Three rats were used for each of the following time points post-dosing: 0.5 hr, 1.5 hr and 3.0 hrs. First, blood was collected during deep anesthesia in heparinized tubes, and then animals were sacrificed and their brains were harvested. The brains were then pulverized in liquid nitrogen and homogenized in fixed volumes of ice cold homogenization buffer (10% Acetonitrile, 0.1% formic acid in water). Plasma was separated from blood using standard procedures. Plasma and brain concentrations of test compounds 2 and 97 were determined by LC/MS/MS using an API 4000 or AP15500 Qtrap mass spectrometer. Brain/Plasma ratio of test compounds 2 and 97 were determined after normalizing brain weight and buffer volume.

| Structure (SMILES) | tumor KYN levels reduced [1] | plasma KYN levels reduced [1] | blood brain barrier penetration [2] |
| --- | --- | --- | --- |
| Nc1oc2cnccc2c1Nc1ccc(F)c(Cl)c1 [Compound 2, N^3-(3-Chloro-4-fluoro-phenyl)-furo[2,3-c]pyridine-2,3-diamine] | 81% | 62% | capable of penetrating blood brain barrier |
| Nc1oc2c(-c3ccncc3)nccc2c1Nc1ccc(F)c(Cl)c1 [Compound 97, N^3-(3-Chloro-4-fluorophenyl)-7-(pyridin-4-yl)furo[2,3-c]pyridine-2,3-diamine] | 81% | 67% | capable of penetrating blood brain barrier |
